These results are taken from patent US8906895B2, “Optically active dibenzylamine derivative, and method for preparing thereof” (Kowa Company, Ltd., priority 2010, dated 2014).

Structures are written as SMILES. Marks after values point to notes of the source that are not given here.

One assay has as its system LDL receptor (LDLR). Kind of assay: LDL receptor amount in HepG2 cells by Western blotting. The class given is cell-based, human. The conditions noted are these: 48 hours; for LDL receptor amount (Relative value based on value of control taken as 1): 10 μM in culture medium, corrected by β-actin; for LDL receptor amount-increasing action in comparison with the control (in words): 10 μM. The procedure: (§1) Influence of a test compound on amount of PCSK9 protein and amount of LDL receptor was studied by adding the test compound to human hepatoma cell strain, HepG2 cells, and measuring amount of PCSK9 protein and amount of LDL receptor (LDLR) by Western blotting after culture for 48 hours.
(§2) Specifically, the HepG2 cells were inoculated on a 6-well plate at a density of 5×10^5 cells/well and cultured overnight, and a test compound dissolved in dimethyl sulfoxide (DMSO), or only DMSO was added to the culture medium in a 1/1000-fold amount. The cells were cultured at 37° C. for 48 hours in a CO2 incubator, the culture was added with 100 μL of the RIPA buffer (50 mM Tris-HCl, pH 7.8, 150 mM NaCl, 1% NP-40, 0.5% sodium deoxycholate, 0.1% SDS, proteinase inhibitor) to disrupt the cells, and proteins were extracted. The extracted proteins were centrifuged at 10000×g, the supernatant was collected, and added with an SDS sample buffer (60 mM Tris-HCl, pH 6.8, 2% SDS, 10% glycerol, 3% mercaptoethanol), and the mixture was subjected to separation by SDS-PAGE (SDS-polyacrylamide gel electrophoresis) using 8% acrylamide gel. After completion of the separation, the proteins were fixed on a nitrocellulose membrane by using iBlot Gel Transfer System (Invitrogen), and blocked by using Block Ace (DS Pharma Biomedical, Catalog No. UK-B 80).
(§3) Detection of the PCSK9 protein, LDLR, and β-actin protein, and measurement of the amounts thereof were performed by labeling the proteins on the membrane using Anti-PCSK9 (Cayman, Catalog No. 1000718), Anti-LDLR (BioVision, Catalog No. 3839-100), and Anti-β-Actin (Sigma, Catalog No. A5316), respectively, as the primary antibody, and Anti-Rabbit IgG-HRP (Sigma, Catalog No. A0545) or Anti-Mouse IgG-HRP (Sigma, Catalog No. A4416) as the secondary antibody, reacting a chemiluminescence reagent (substrate of HRP) with the secondary antibody on the membrane, and then measuring signal intensity using Lumino Image Analyzer LAS-3000 (Fuji Photo Film). The resulting signal intensity wag numprirally evaluated by using image analysis software, Science Lab 2002 Multi Gauge (Fuji Photo Film).
(§4) The resulting measured values of the PCSK9 protein amount and the LDL receptor amount were corrected between those obtained for the sample added with a test compound and the control sample (sample added with only DMSO) using the β-actin protein amounts as index. The corrected PCSK9 protein amount and LDL receptor amount of the test compound addition sample were represented by relative values based on the PCSK9 protein amount and LDL receptor amount of the control sample, respectively, which were taken as 1.

In the next assay the test system is human PCSK9 mRNA. Kind of assay: PCSK9 mRNA expression in HepG2 cells by quantitative real-time PCR. The class given is cell-based. The note with it: 10 μM, 24 hours. On the procedure:
(§5) Specifically, the HepG2 cells were inoculated on a 24-well plate at a density of 2×10^5 cells/well and cultured overnight, and then a test compound dissolved in dimethyl sulfoxide (DMSO), or only DMSO was added to the culture medium in a 1/1000-fold amount. The cells were cultured at 37° C. for 24 hours in a CO2 incubator, and then added with 500 μl of ISOGEN (NIPPON GENE, Catalog No. 31-02501), and the total RNA was extracted. cDNA was synthesized from the extracted total RNA by using High Capacity cDNA Reverse Transcription Kit (Applied Biosystems, Catalog No. 4368813). Expression amount of human PCSK9 mRNA was measured by quantitative real-time PCR using primers specific to human PCSK9 (Kourimate S. et al., J. Biol. Chem., Vol. 283, p9666), and Fast SYBR Green Master Mix (Applied Biosystems, Catalog No. 4385614). As the measurement apparatus, 7900HT Fast Realtime PCR System was used.
The resulting measured values of the PCSK9 mRNA expression amount were corrected between those obtained for test compound addition samples (3 samples) and control samples (sample added with only DMSO, 3 samples) using the β-actin mRNA expression amounts as index. […]

Assay [1] concerns LDL cholesterol in the plasma. Kind of assay: Blood LDL cholesterol-reducing action in normal hamsters. The note with it: for LDL cholesterol-reducing rate: based on control group; for Average LDL cholesterol amount ± standard deviation: plasma 4 hours after final administration, control 50 ± 3.0. Format: in vivo, male Syrian hamsters. The text has this:
(S)-trans-{4-[({2-[({1-[3,5-Bis(trifluoromethyl)phenyl]ethyl}{5-[2-(methylsulfonyl)ethoxy]pyrimidin-2-yl}amino)methyl]-4-(trifluoromethyl)phenyl}(ethyl)amino)methyl]cyclohexyl}acetic acid ((S)-isomer compound (III), optical purify: >99% ee) was suspended in a 0.5% methylcellulose solution, and orally administered repeatedly to normal hamsters (male Syrian hamsters) once a day over 14 days by using a metal probe. Four hours after the final administration, blood was collected, and plasma was obtained. Lipoproteins in the plasma were analyzed by automatic measurement using an HPLC system based on the post-labeling method according to the method described in J. Lipid. Res., 43, p805-814. Specifically, 15 μL of a plasma sample was diluted 10 times with PBS containing 1 mM EDTA, and 80 μl of the diluted sample was injected into a gel filtration column (Superose 6 column (column size: 10×300 mm), GE Healthcare Bioscience) connected to an HPLC system (liquid feeding unit: Shimadzu LC-20A System, Shimadzu). Separation was performed at a flow rate of 0.5 mL/minute and a column temperature of 40° C. by using PBS containing 1 mM EDTA as a running buffer. A cholesterol-measuring reagent (Cholesterol E-Test Wako, Wako Pure Chemical Industries) was mixed with the eluate from the column at a flow rate of 0.25 mL/minute, and the reaction was performed at 40° C. in a reaction coil (0.5 mm×15 m) with feeding the eluate. Cholesterols in the eluate obtained from the reaction coil were detected at a wavelength of 600 nm. Area ratio of the LDL fraction based on the resulting total peak area of cholesterols was calculated, and the total cholesterol amount measured beforehand by using Cholesterol E-Test Wako was multiplied by the area ratio of the LDL fraction to calculate LDL cholesterol amount.
Six normal hamsters were used for each of the control group (0.5% methylcellulose solution administration group) and the test compound administration groups (10 mg/kg body weight and 30 mg/kg body weight of (S)-isomer compound (III) administration groups). The hamsters were divided into the groups beforehand on the basis of the total plasma cholesterol value.
The symbols * and *** in Table 3 means that there were significant differences at a significance level of 5% or less (p<0.05) and a significance level of 0.1% or less (p<0.001), respectively, as determined by a multi-group comparison test (Dunnett's multiple comparison test) performed between the control group and each of the test compound administration groups. Further, the LDL cholesterol amount-reducing rate of the test compound administration group based on the control group was calculated in accordance with the following equation 1 as an LDL cholesterol-reducing rate, and indicated in terms of percentage. LDL cholesterol-reducing rate(%)=[(Average of LDL cholesterol amount of control group−Average of LDL cholesterol amount of compound administration group)/Average of LDL cholesterol amount of control group]×100 (Equation 1)

The test system of the next assay is PCSK9 protein. The experiment in a line: PCSK9 protein amount in HepG2 cells by Western blotting. The class given is cell-based, human. The note with it: 48 hours; for PCSK9 protein amount (Relative value based on value of control taken as 1): 10 μM in culture medium, corrected by β-actin; for PCSK9 protein amount-reducing action in comparison with the control (in words): 10 μM. The procedure:
as §1, §2, §3, §4
A general note: Immunoblotting shows a protein as a band on a membrane.

Assay [2] concerns human HMG-CoA reductase mRNA. Kind of assay: HMG-CoA reductase mRNA expression in HepG2 cells by quantitative real-time PCR. Format: cell-based. The note with it: 10 μM, 8 hours; for HMG-CoA reductase mRNA expression amount (Relative value based on average value of control taken as 1): average ± standard error, 3 samples. The procedure:
A test compound was added to the HepG2 cells and the cells were cultured for 8 hours, and then HMG-CoA reductase mRNA expression amount was measured by quantitative real-time PCR.
as §5, with “for 8” for “for 24”, “500 μL” for “500 μl”, “human HMG-CoA reductase” for “human PCSK9”, “using a set of the following primers: 5′-[…]-3′ (SEQ ID No:1) and 5′-[…]-3′ (SEQ ID No:2)” for “using primers”, “human HMG-CoA reductase,” for “human PCSK9 (Kourimate S. et al., J. Biol. Chem., Vol. 283, p9666),”
The resulting measured values of the HMG-CoA reductase mRNA expression amount were corrected between those obtained for test compound addition samples (3 samples for each compound) and control samples (sample added with only DMSO, 3 samples) using the β-actin mRNA expression amounts as index. The corrected HMG-CoA reductase mRNA expression amount of the test compound addition sample was represented with a relative value (average±standard error) based on average of the HMG-CoA reductase mRNA expression amounts of the control samples, which was taken as 1.

Where [3] appears, read: 10 mg/kg orally once a day over 14 days.
[4] abbreviates: 30 mg/kg orally once a day over 14 days.

Take `CCN(C[C@H]1CC[C@H](CC(=O)O)CC1)c1ccc(C(F)(F)F)cc1CN(c1ncc(OCCS(C)(=O)=O)cn1)[C@@H](C)c1cc(C(F)(F)F)cc(C(F)(F)F)c1` [(S)-Isomer compound (III), (S)-trans-{4-[({2-[({1-[3,5-Bis(trifluoromethyl)phenyl]ethyl}{5-[2-(methylsulfonyl)ethoxy]pyrimidin-2-yl}amino)methyl]-4-(trifluoromethyl)phenyl}(ethyl)amino)methyl]cyclohexyl}acetic acid]: in the assay on LDL receptor (LDLR), the “LDL receptor amount (Relative value based on value of control taken as 1)” value came out at 1.73 and the “LDL receptor amount-increasing action in comparison with the control (in words)” value (“LDL receptor amount-increasing action” below) is recorded as “remarkably increased”. In the assay with human PCSK9 mRNA, the “Effect on expression amount of PCSK9 mRNA in comparison with the control (in words)” value is reported as “remarkably reduced”. In the assay with human PCSK9 mRNA (average ± standard error, 3 samples), the “PCSK9 mRNA expression amount (Relative value based on average value of control taken as 1)” value is 0.18 ± 0.13. Moreover, in assay [1] (setting [3]), the LDL cholesterol-reducing rate came to 20.0% and the “Average LDL cholesterol amount ± standard deviation” value is on record as 40 ± 2.6* mg/dl. In assay [1] (setting [4]), the LDL cholesterol-reducing rate was found to be 38.0% and the “Average LDL cholesterol amount ± standard deviation” value was 31 ± 2.6*** mg/dl. Moreover, the “Blood LDL cholesterol-reducing action (in words)” value in assay [1] (normal hamsters, 10 and 30 mg/kg orally, 14 days) is on record as “superior blood LDL cholesterol-reducing action”. In addition, in the assay on PCSK9 protein, the “PCSK9 protein amount (Relative value based on value of control taken as 1)” value was found to be 0.28 and the “PCSK9 protein amount-reducing action in comparison with the control (in words)” value (“PCSK9 protein amount-reducing action” for short) is “markedly reduced”.

Regarding `CCN(C[C@H]1CC[C@H](CC(=O)O)CC1)c1ccc(C(F)(F)F)cc1CN(c1ncc(OCCSC)cn1)C(C)c1cc(C(F)(F)F)cc(C(F)(F)F)c1` (relative stereo) [trans-{4-[({2-[({1-[3,5-Bis(trifluoromethyl)phenyl]ethyl}{5-[2-(methylthio)ethoxy]pyrimidin-2-yl}amino)methyl]-4-(trifluoromethyl)phenyl}(ethyl)amino)methyl]cyclohexyl}acetic acid], in assay [2], the “Effect on HMG-CoA reductase mRNA expression amount in comparison with the control (in words)” value is “remarkably reduced” and the “HMG-CoA reductase mRNA expression amount (Relative value based on average value of control taken as 1)” value is 0.25 ± 0.03.

As to `CCN(C[C@H]1CC[C@H](CC(=O)O)CC1)c1ccc(C(F)(F)F)cc1CN(c1ncc(OCCS(C)(=O)=O)cn1)[C@H](C)c1cc(C(F)(F)F)cc(C(F)(F)F)c1` [(R)-Isomer compound (II), (R)-trans-{4-[({2-[({1-[3,5-Bis(trifluoromethyl)phenyl]ethyl}{5-[2-(methylsulfonyl)ethoxy]pyrimidin-2-yl}amino)methyl]-4-(trifluoromethyl)phenyl}(ethyl)amino)methyl]cyclohexyl}acetic acid], in the assay on LDL receptor (LDLR), the “LDL receptor amount (Relative value based on value of control taken as 1)” value was 0.93 and the “LDL receptor amount-increasing action” value is reported as “almost no such actions”. In addition, in the assay with PCSK9 protein, the “PCSK9 protein amount (Relative value based on value of control taken as 1)” value came to 1.05 and the “PCSK9 protein amount-reducing action” value is “almost no such actions”.

On to `CCN(C[C@H]1CC[C@H](CC(=O)O)CC1)c1ccc(C(F)(F)F)cc1CN(c1ncc(OCCS(C)(=O)=O)cn1)C(C)c1cc(C(F)(F)F)cc(C(F)(F)F)c1` (mixture of isomers) [Racemate compound (I), trans-{4-[({2-[({1-[3,5-Bis(trifluoromethyl)phenyl]ethyl}{5-[2-(methylsulfonyl)ethoxy]pyrimidin-2-yl}amino)methyl]-4-(trifluoromethyl)phenyl}(ethyl)amino)methyl]cyclohexyl}acetic acid, reference compound], for which, in the assay on LDL receptor (LDLR), the “LDL receptor amount (Relative value based on value of control taken as 1)” value was 0.73 and the “LDL receptor amount-increasing action” value is recorded as “almost no such actions”. Moreover, in assay [2], the “Effect on HMG-CoA reductase mRNA expression amount in comparison with the control (in words)” value is recorded as “remarkably reduced” and the “HMG-CoA reductase mRNA expression amount (Relative value based on average value of control taken as 1)” value is listed as 0.37 ± 0.02. Besides, in the assay on PCSK9 protein, the “PCSK9 protein amount (Relative value based on value of control taken as 1)” value is given as 0.68 and the “PCSK9 protein amount-reducing action” value is “almost no such actions”.
